In US20030100757A1, “2-(4-aryl or heteroaryl-piperazin-1-ylmethyl)-1H-indole derivatives interacting with the dopamine D4 receptor” (Pfizer Inc., priority 2001, published 2003) one finds melting point data, which are given here for 12 compounds.

In general, melting point refers to the temperature of the solid-liquid transition.

In turn, `Oc1ccc2[nH]c(CN3CCN(c4cccc(C(F)(F)F)c4)CC3)cc2c1` [Example 4, 2-[4-(3-Trifluoromethyl-phenyl)-piperazin-1-ylmethyl]-1H-indol-5-ol] yielded a melting point of 188 to 190 °C.

As for `FC(F)(F)c1cccc(N2CCN(Cc3cc4ccccc4[nH]3)CC2)c1` [Example 5, 2-[4-(3-Trifluoromethyl-phenyl)-piperazin-1-ylmethyl]-1 H-indole], the melting point was in the range of 192 to 194 °C.

`O=C(c1cc2cc(F)ccc2[nH]1)N1CCN(c2ccccc2[N+](=O)[O-])CC1` [Example 7, (5-Fluoro-1H-indol-2-yl)-[4-(2-nitro-phenyl)-piperazin-1-yl]-methanone] displayed a melting point of 184 to 188 °C. `O=C(c1cc2cc(F)ccc2[nH]1)N1CCN(c2cccc(C(F)(F)F)c2)CC1` [Example 8, (5-Fluoro-1H-indol-2-yl)-[4-(3-trifluoromethyl-phenyl)-piperazin-1-yl]-methanone]: the melting point is 198 °C. In the case of `c1ccc2[nH]c(CN3CCN(c4nsc5ccccc45)CC3)cc2c1` [Example 9, 3-[4-(1H-Indol-2-ylmethyl)-piperazin-1-yl]-benzo[d]isothiazole], the melting point is 150 to 152 °C.

`Fc1ccc2[nH]c(CN3CCN(c4cccc(C(F)(F)F)c4)CC3)cc2c1` [Example 10, 5-Fluoro-2-[4-(3-trifluoromethyl-phenyl)-piperazin-1-ylmethyl]-1H-indole] showed a melting point of 196 to 197 °C. For `c1ccc2[nH]c(CN3CCN(c4cccc5ccccc45)CC3)cc2c1` [Example 11, 2-(4-Naphthalen-1-yl-piperazin-1-ylmethyl)-1H-indole] the value was 238 to 239 °C; for `O=[N+]([O-])c1ccccc1N1CCN(Cc2cc3ccccc3[nH]2)CC1` [Example 12, 2-[4-(2-Nitro-phenyl)-piperazin-1-ylmethyl]-1H-indole], 210 to 211 °C; for `O=[N+]([O-])c1ccccc1N1CCN(Cc2cc3cc(F)ccc3[nH]2)CC1` [Example 13, 5-Fluoro-2-[4-(2-nitro-phenyl)-piperazin-1-ylmethyl]-1H-indole], 236 °C.

Take `Fc1ccc2[nH]c(CN3CCN(c4cccc5ccccc45)CC3)cc2c1` [Example 14, 5-Fluoro-2-(4-naphthalen-1-yl-piperazin-1-ylmethyl)-1H-indole]: the melting point is 249 to 250 °C. Next, `Fc1ccc2[nH]c(CN3CCN(c4ncccn4)CC3)cc2c1` [Example 17, 5-Fluoro-2-(4-pyrimidin-2-yl-piperazin-1-ylmethyl)-1H-indole]: 199 °C. The compound `O=C(c1cc2cc(F)ccc2[nH]1)N1CCN(c2ccccn2)CC1` [Example 18, (5-Fluoro-1H-indol-2-yl)-(4-pyridin-2-yl-piperazin-1-yl)-methanone] registered a melting point of 214 to 218 °C.
